The results in this text go back to patent publication US5240918A, “2-(substituted imino)-thiazolidines and process for the preparation thereof” (EGIS Gyogyszergyar, priority 1992, dated 1993).

The subject of one data set is acetic acid "writhing". Kind of data set: Acetic acid "writhing test" on mice (analgesic effect; method of Newbould). It is filed as in vivo. The note with it: Mus musculus, po. As for the experimental part:
2. Acetic acid "writhing test" on mice (analgesic effect) Method: Newbould, Brit. […] In the period between the 5th and 10th minutes following the administration of acetic acid the number of the characteristic "writhing" responses is counted for each animal and the "total writhing number" (within 5 minutes) is expressed as the percentage of the value obtained for the control animals. The mice are treated with the test compound and the carrier, respectively, orally 1 hour before the administration of acetic acid. 12 animals are used per dose.
(In general: In writhing tests, fewer writhes than in controls are read as antinociception.)

Data set [1] is described as follows: Toxicity (LD50) and therapeutical index, Table II. The note with it: mouse, in vivo.
The subject of data set [2] is experimental coronaria insufficiency induced with vasopressin. Description: Antianginal effect (vasopressin-induced experimental coronaria insufficiency, ECG wave T; method of Nieschulz et al.). It is filed as in vivo. To be noted: male rats, 2 minutes prior to vasopressin; for ED50: Rattus norvegicus, iv. The procedure: Method: the test was carried out on rats by using the method of Nieschulz, E., Popendiker, K. and Hoffmann, I. (Arzneimittel Forschung, 5, 680 /1955/).
Male rats of 180-220 g body weight were narcotized with chloralese-urethane(70-700 mg/kg ip.). The ECG was registered with needle electrodes in standard II leading. The experimental coronaria insufficiency was induced with […].). The height of wave T in ECG was measured before and after the administration of vasopressin in both the control and treated groups. Test compounds were administered intravenously 2 minutes prior to the treatment with vasopressin.

[3] abbreviates: white mice, orally 1 hour before acetic acid, writhing counted 5th to 10th minutes, 12 animals per dose, read-out: ID50 (the source's name).

The structures appear in SMILES notation. Like-named read-outs stand apart in the source and are kept apart here.

As usually defined, the LD50 is the dose expected to kill half of the subjects tested. A high value points to a less toxic substance. In the case of `CC(=O)Oc1ccccc1C(=O)O` [Acetylsalicylic acid, reference compound], in the data set with acetic acid "writhing" (read-out: ID50 mg/kg), the ED50 stood at 261 mg/kg. In data set [1], the 50% lethal dose (LD50) is 1350 mg/kg and the selectivity ratio was 5.2.
Take `C=CCNC(=S)N=C1SCCN1c1cc(Cl)ccc1[N+](=O)[O-]` [Example 20, 2-(N'-Allylthiocarbamoylimino)-3-(5'-chloro-2'-nitrophenyl)-thiazolidine]: in data set [2], the ED50 amounted to 1.45 mg/kg and the “Activity (2 mg/kg iv.)” value amounted to 78%.
Consider `CC(=O)N=C1SCCN1c1ccc(Cl)cc1[N+](=O)[O-]` [Example 24, 2-Acetylimino-3-(4'-chloro-2'-nitrophenyl)-thiazolidine], for which the ED50 with acetic acid "writhing" (setting [3]) stood at 37 mg/kg. Further, in data set [1], the LD50 was found to be 700 mg/kg and the selectivity ratio was 10.9.
The like results for `CC(=O)N=C1SCCN1c1ccccc1[N+](=O)[O-]` [Example 25, L-Acetylimino=3-(2-nitrophenyl)-thiazolidine] were, in that order, 180 mg/kg, 2000 mg/kg and 11.1.
For `CC(=O)N=C1SCCN1c1ccc(C(F)(F)F)cc1[N+](=O)[O-]` [Example 26, 2-Acetylimino-3-(4'-trifluoromethyl-2'-nitrophenyl)-thiazolidine], the ED50 in the data set with acetic acid "writhing" (setting [3]) came out at 170 mg/kg. In data set [1], the LD50 turned out to be 2000 mg/kg and the selectivity ratio amounted to 11.8.
As to `N#CN=C1SCCN1c1cc(Cl)ccc1[N+](=O)[O-]` [Example 46, 2-Cyanimido-3-(5'-chloro-2'-nitrophenyl)thiazolidine], in data set [2], the ED50 worked out at 1.76 mg/kg and the “Activity (2 mg/kg iv.)” value was determined as 62%.
